Assay results: ChEMBL document CHEMBL1201862, “PubChem BioAssay data set” (2004)
Activity calls are given as the source filed them.

How the values were obtained:
Escherichia coli = assay: microbe, parasite or virus in culture
[1] = molecular target: T1, Calpain-2 catalytic subunit (Sus scrofa, UniProt P43367); assay: pig calpain II inhibitor potency, dose response, biochemical, fluorogenic peptide substrate (AID 1420); format: functional
T1 sequence (P43367 whole entry): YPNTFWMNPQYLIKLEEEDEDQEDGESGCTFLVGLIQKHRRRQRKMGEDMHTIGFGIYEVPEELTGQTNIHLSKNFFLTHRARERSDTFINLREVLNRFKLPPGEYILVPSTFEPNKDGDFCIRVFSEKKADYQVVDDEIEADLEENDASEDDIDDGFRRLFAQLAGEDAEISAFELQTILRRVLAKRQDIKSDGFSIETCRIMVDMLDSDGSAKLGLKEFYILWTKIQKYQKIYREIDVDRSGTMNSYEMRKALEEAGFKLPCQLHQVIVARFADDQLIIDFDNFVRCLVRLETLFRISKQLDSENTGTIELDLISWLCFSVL

[2] = growth suppression of PTEN-null colon cells, dose response, cell-based, HCT116 PTEN knockout (AID 1047); format: functional;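 note: HCT116 colon tumor cells with PTEN knocked out; cells exposed to compound for 60 hours before readout; potency for loss of cell viability measured by luminescence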
[3] = growth suppression of beta-catenin-knockout colon cells, dose response, cell-based, HCT116, human colon tumor (AID 1045); format: functional;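 note: HCT116 colon tumor cells with beta catenin knocked out; cells exposed to compound for 60 hours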
Genome polyprotein = Genome polyprotein (dengue virus type 2, UniProt P29990); assay: Dengue-2 NS5 methyltransferase inhibitors, primary screen, biochemical, confirmation dose response (AID 588689); format: functional
Sequence of Genome polyprotein (P29990 2492-3391 limits assumed): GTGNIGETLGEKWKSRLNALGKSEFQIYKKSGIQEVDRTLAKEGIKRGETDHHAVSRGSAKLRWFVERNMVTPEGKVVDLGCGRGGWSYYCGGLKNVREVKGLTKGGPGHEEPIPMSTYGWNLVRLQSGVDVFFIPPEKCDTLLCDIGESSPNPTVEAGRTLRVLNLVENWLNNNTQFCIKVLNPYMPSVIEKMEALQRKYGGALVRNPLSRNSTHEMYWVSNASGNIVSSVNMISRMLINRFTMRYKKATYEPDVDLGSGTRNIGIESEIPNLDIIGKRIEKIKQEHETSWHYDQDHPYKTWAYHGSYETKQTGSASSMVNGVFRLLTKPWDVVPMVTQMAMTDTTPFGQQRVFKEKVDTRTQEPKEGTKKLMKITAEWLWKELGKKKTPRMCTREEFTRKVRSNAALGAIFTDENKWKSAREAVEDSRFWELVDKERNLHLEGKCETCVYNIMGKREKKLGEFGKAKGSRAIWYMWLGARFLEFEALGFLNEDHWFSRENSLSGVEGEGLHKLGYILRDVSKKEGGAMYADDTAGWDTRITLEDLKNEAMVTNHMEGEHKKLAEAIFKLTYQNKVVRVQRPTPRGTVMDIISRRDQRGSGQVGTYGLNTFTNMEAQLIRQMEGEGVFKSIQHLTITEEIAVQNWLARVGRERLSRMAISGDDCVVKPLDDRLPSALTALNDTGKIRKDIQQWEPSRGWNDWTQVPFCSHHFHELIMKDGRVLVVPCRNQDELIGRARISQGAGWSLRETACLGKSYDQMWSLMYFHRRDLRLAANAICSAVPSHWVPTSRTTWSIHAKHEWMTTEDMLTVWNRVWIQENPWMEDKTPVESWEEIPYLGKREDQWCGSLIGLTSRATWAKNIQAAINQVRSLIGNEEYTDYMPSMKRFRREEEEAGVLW

Fatty acid synthase [4] = molecular target: T2, Fatty acid synthase (Homo sapiens, UniProt P49327); assay: FAS thioesterase domain inhibitors, dose response, biochemical, endpoint fluorescence intensity, uHTS hits (AID 624327); format: functional;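 note: fluorescence from hydrolysis of an O-methyl fluorescein acyl ester substrate by the enzyme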
T2 sequence (P49327 whole entry, the tested form may be a part): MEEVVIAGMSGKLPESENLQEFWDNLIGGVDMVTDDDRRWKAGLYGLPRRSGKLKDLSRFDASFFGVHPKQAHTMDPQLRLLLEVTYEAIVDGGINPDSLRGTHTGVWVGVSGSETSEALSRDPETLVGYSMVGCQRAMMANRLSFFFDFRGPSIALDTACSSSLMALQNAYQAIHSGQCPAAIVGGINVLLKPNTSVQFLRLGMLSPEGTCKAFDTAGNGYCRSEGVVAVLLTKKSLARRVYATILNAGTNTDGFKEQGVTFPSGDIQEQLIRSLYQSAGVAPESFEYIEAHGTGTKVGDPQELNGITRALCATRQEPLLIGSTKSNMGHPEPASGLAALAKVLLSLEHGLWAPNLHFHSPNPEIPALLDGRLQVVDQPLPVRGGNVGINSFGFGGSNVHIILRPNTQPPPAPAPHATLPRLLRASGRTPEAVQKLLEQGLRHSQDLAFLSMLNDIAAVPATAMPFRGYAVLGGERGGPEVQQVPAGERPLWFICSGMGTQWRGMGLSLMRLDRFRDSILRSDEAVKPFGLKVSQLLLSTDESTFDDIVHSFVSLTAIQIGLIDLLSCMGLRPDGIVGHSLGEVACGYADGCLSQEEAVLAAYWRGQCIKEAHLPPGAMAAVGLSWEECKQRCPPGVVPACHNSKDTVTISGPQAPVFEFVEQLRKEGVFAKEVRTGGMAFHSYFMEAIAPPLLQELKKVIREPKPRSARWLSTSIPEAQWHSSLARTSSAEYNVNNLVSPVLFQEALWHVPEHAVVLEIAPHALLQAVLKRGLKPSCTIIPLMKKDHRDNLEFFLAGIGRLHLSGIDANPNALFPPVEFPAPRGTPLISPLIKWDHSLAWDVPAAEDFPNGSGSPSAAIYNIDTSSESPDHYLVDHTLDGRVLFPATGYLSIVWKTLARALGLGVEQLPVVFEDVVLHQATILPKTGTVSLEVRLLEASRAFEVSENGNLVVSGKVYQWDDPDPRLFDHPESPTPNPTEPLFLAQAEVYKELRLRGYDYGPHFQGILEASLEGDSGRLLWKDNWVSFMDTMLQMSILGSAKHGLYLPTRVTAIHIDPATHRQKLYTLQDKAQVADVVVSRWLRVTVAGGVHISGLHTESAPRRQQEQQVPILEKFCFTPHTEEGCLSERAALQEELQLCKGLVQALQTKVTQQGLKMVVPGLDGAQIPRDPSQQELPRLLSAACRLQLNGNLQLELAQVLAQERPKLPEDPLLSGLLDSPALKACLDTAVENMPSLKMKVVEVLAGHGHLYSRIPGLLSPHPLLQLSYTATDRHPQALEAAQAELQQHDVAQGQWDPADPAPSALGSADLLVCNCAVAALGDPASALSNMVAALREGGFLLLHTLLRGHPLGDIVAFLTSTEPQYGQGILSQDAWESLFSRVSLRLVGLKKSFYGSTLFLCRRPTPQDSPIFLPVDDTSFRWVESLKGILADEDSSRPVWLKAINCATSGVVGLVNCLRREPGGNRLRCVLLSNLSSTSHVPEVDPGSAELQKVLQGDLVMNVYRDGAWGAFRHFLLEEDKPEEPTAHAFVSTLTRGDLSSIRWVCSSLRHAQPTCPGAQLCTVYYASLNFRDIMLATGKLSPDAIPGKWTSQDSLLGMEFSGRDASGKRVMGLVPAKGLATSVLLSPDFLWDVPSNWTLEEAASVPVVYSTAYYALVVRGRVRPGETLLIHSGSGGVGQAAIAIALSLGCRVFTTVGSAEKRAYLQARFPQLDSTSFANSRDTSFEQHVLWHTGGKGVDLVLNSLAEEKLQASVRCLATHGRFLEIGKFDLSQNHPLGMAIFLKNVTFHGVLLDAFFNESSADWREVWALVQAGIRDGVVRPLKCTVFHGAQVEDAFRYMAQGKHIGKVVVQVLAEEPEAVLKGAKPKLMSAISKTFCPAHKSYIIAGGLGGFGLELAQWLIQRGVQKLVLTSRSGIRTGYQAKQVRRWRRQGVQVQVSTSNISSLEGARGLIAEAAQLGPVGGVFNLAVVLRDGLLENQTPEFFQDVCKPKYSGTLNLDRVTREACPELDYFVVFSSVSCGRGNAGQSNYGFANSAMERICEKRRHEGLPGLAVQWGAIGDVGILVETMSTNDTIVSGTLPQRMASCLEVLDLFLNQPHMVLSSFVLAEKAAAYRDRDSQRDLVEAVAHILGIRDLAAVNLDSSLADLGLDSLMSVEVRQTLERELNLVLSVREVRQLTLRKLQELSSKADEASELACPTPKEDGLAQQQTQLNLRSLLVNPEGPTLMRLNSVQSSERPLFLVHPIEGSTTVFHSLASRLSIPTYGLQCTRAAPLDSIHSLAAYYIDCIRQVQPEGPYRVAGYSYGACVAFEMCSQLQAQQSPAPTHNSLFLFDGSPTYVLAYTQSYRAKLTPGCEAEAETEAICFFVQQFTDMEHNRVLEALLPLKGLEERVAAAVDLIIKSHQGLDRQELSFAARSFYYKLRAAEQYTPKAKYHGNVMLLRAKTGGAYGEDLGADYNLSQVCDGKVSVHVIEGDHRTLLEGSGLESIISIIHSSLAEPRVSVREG

Fatty acid synthase [5] = molecular target: T2, Fatty acid synthase; assay: FAS thioesterase domain inhibitors, dose response, biochemical, kinetic fluorescence intensity (AID 624326); format: functional;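 note: rate of fluorescence rise from hydrolysis of a fluorogenic O-methyl fluorescein ester substrate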
[6] = molecular target: DNA dC->dU-editing enzyme APOBEC-3A (Homo sapiens, UniProt P31941); assay: Dose Response confirmation of small molecule APOBEC3A DNA Deaminase Inhibitors via a fluorescence-based single-stranded DNA deaminase assay. [Related pubchem assays (depositor defined):AID493011, AID493024]; format: functional
Sequence of DNA dC->dU-editing enzyme APOBEC-3A (P31941 whole entry): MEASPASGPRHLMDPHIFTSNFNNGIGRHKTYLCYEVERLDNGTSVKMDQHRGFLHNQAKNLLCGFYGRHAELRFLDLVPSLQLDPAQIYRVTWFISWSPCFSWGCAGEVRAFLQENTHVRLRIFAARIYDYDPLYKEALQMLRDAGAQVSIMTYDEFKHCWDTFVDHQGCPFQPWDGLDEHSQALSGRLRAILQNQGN

[7] = molecular target: DNA dC->dU-editing enzyme APOBEC-3G (Homo sapiens, UniProt Q9HC16); format: functional;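 note: Dose-response counterscreen measuring inhibition of APOBEC3G DNA deaminase activity, run while confirming APOBEC3A inhibitors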
[8] = molecular target: T3, Carboxy-terminal domain RNA polymerase II polypeptide A small phosphatase 1 (Homo sapiens, UniProt Q9GZU7); assay: inhibitors of CTDSP1, concentration-response testing, biochemical assay, absorbance-based, actives from ultra-high-throughput screening (AID 540297); format: functional
T3 sequence (Q9GZU7 whole entry): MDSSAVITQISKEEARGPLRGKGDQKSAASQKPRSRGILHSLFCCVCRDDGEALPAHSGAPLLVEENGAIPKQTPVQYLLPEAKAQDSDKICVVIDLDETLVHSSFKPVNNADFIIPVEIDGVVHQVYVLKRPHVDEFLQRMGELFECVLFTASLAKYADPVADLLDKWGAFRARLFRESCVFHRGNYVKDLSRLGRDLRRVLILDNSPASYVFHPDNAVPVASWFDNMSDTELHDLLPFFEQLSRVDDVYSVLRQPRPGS

[9] = cytotoxicity in HEK-293T cells, dose response, cytotoxicity control for TCR NF-kB inhibitor project, luminescence, T-cell screen hits (AID 489026); format: functional, cell-based;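 note: cells exposed to compound about 14 hours before the viability readout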
INS1 = assay: beta cell apoptosis inhibitors, cytokine rescue, dose response, luminescence, retest (AID 449756); format: functional, cell-based; settings: Rattus norvegicus;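 note: cell death triggered by IL-1 beta plus TNF-alpha plus IFN-gamma mixture; protective hits raise ATP signal compared with cytokine alone wells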
[10] = Shn3 3'UTR reporter inhibitors, dose response, cell-based, Clone20 osteoblasts, firefly luciferase, cherry-picked (AID 624132); format: functional;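 note: firefly luciferase luminescence from reporter carrying the Shn3 3'UTR in osteoblasts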
[11] = HepG2 cell cytotoxicity, dose response, cytotoxicity control for Shn3 inhibitor project, CellTiter-Glo, cherry-picked (AID 624134); format: functional, cell-based
[12] = control 3'UTR Renilla luciferase suppression, dose response, counter-screen for Shn3 inhibitor project, cell-based, Clone20-Shn3RL, cherry-picked (AID 624133); format: functional
Cytochrome P450 2C9 = Cytochrome P450 2C9 (Homo sapiens, UniProt P11712)
Sequence of Cytochrome P450 2C9 (P11712 whole entry): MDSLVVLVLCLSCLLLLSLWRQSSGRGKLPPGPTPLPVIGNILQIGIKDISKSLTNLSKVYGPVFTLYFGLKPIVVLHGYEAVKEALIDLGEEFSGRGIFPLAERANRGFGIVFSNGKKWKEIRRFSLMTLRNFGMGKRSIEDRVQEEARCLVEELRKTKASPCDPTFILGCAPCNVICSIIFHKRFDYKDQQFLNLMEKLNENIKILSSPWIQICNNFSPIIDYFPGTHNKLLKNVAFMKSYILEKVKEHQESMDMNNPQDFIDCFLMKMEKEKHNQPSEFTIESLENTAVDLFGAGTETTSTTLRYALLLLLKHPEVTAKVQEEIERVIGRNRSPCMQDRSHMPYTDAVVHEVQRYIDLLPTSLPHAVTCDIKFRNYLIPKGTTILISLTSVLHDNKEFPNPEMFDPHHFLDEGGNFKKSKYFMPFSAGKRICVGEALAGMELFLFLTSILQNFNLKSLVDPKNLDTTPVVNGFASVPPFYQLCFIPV

Vero = assay: cells; format: functional; settings: Chlorocebus sabaeus
Cytochrome P450 2C19 = Cytochrome P450 2C19 (Homo sapiens, UniProt P33261); assay: Cytochrome panel assay with activity outcomes. Panel member name: p450-cyp2c19 Compounds with AC50 equal or less than 10 uM are considered active; format: functional; settings: read-out: AC50
Sequence of Cytochrome P450 2C19 (P33261 whole entry): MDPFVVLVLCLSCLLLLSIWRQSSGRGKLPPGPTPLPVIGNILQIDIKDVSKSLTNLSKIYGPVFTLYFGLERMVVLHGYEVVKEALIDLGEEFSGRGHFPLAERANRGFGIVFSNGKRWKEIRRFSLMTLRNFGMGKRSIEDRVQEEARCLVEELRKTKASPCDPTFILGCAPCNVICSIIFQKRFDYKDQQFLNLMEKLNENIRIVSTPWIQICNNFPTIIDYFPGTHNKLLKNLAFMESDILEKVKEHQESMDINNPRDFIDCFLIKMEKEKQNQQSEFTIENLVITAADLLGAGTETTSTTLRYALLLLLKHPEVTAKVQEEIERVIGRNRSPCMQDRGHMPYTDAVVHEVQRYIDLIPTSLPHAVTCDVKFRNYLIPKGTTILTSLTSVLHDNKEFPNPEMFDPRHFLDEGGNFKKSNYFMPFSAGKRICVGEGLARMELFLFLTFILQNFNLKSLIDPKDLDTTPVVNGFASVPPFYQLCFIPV

Cytochrome P450 1A2 = molecular target: T4, Cytochrome P450 1A2 (Homo sapiens, UniProt P05177);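 note: PubChem cytochrome P450 panel assay, CYP1A2 panel member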
T4 sequence (P05177 whole entry): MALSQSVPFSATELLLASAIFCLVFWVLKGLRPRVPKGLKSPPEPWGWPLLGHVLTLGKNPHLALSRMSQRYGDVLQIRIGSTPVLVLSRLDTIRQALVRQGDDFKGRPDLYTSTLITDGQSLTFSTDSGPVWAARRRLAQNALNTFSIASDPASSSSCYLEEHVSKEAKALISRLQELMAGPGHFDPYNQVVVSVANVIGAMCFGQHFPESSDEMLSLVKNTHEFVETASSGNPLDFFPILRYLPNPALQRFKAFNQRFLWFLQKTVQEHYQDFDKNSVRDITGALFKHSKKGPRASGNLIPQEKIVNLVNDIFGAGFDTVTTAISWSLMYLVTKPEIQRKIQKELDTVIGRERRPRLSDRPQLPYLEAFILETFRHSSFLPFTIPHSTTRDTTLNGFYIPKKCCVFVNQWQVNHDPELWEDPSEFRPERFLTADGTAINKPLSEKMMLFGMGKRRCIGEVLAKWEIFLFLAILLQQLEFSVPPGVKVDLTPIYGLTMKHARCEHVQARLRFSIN

Cytochrome P450 3A4 = Cytochrome P450 3A4 (Homo sapiens, UniProt P08684);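 note: CYP3A4 tested as one member of a cytochrome P450 panel screen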
Cytochrome P450 2D6 = Cytochrome P450 2D6 (Homo sapiens, UniProt P10635);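 note: CYP2D6 member of a cytochrome P450 panel assay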
Sequence of Cytochrome P450 2D6 (P10635 whole entry): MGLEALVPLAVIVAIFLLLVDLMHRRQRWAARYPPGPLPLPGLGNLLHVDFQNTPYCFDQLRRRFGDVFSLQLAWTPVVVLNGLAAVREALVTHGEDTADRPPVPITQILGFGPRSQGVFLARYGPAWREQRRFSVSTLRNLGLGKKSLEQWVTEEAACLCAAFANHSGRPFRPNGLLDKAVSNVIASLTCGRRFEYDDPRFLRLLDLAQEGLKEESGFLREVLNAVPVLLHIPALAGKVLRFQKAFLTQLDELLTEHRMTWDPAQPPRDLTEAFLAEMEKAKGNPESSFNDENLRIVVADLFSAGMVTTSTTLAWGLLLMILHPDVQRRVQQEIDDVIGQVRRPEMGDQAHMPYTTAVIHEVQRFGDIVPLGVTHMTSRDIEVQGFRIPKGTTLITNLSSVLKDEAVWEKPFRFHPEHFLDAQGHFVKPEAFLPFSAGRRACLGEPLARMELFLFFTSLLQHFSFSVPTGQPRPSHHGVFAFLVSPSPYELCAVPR

With O=C(Nc1ccc(-c2nc3ncccc3o2)cc1)c1ccco1 the AC50 (Escherichia coli) was 30.5 µM (active).

For CCOC(=O)CNC(=O)c1ccccc1, the AC50 (Escherichia coli) was 21 µM (active).

In the case of Cn1nc(C(=O)Nc2ccc(S(=O)(=O)N3CCCCC3)cc2)c2ccccc2c1=O, the IC50 [1] is reported as > 50 µM (not active).

In the case of COc1cc2c3c(c1)-c1c(sn(-c4cc(OC)ccc4OC)c1=S)C(C)(C)N3C(=O)C2=O, the EC50 [2] is reported as 42.3 µM (active), the EC50 [3] is reported as 51 µM (active) and the IC50 (Genome polyprotein) is reported as 61.9 µM (active).

For O=[N+]([O-])c1cccc(OCCN2CCC(Cc3ccccc3)CC2)c1, the IC50 (Fatty acid synthase [4]) was 5.3 µM (active) and the IC50 (Fatty acid synthase [5]) was 4.72 µM (active).

For Cc1cc(C)nc(N=C(N)Nc2ccc(S(=O)(=O)O)cc2)n1, the IC50 [1] was < 0.4 µM (not active).

With O=C(/C=C/c1ccco1)OCC(=O)N1CCCCC1 the IC50 [6] was 19.5 µM (active), the IC50 [7] was 35.9 µM (active) and the IC50 [8] was 5.75 µM (active).

For CCN(CC)S(=O)(=O)c1cc(NC(=O)CNc2cccc(S(=O)(=O)N3CCCC3)c2)ccc1C, the IC50 [9] was > 80 µM (inactive), the AC50 (INS1) was 5.23 µM (active) and the AC50 [10] was 648 nM (active). For the same molecule, the AC50 [11] was 1.2 µM (active) and the AC50 [12] was > 70 µM (inactive).

In the case of CCCC(=O)Nc1ccc(Cl)c(NC(=S)NC(=O)c2cc3ccccc3o2)c1, the IC50 [1] is reported as > 50 µM (not active).

In the case of CN(C)c1ncc2ncc(=O)n(CCC#N)c2n1, the AC50 (Cytochrome P450 2C9) is reported as “inconclusive”.

For O=C(NCCc1ccccc1)/C(=C\c1cccc([N+](=O)[O-])c1)NC(=O)c1ccco1, the IC50 (Fatty acid synthase [4]) was 3.04 µM (active) and the IC50 (Fatty acid synthase [5]) was 4.22 µM (active).

In the case of CCC(C)N1C(=O)/C(=C\c2cc3c4c(c2)CCCN4CCC3)C(=O)NC1=S (centres undefined), the CC50 (Vero) is reported as > 25 µM (active).

In the case of O=C1/C(=C/c2ccc(F)cc2)SC(=S)N1NS(=O)(=O)c1ccccc1, the IC50 (Genome polyprotein) is reported as 36.7 µM (active).

For O=C(Cc1ccccc1)Nc1ccccc1N1CCOCC1, the AC50 (Cytochrome P450 2C19) was 8.91 µM (inconclusive), the AC50 (Cytochrome P450 1A2) was 6.31 µM (inconclusive) and the AC50 (Cytochrome P450 3A4) was 6.31 µM (inconclusive). For the same molecule, the AC50 (Cytochrome P450 2C9) was “inconclusive”.

With CC(C)COCC1CC2(CC(C)(c3csc(N)n3)OC2=O)C(=O)O1 (centres undefined) the AC50 (Cytochrome P450 2C9) was “inconclusive”.

With COc1ccc(OC)c(/C=N/NC(=O)c2csc3ccccc23)c1 the AC50 (Cytochrome P450 2D6) was 20 µM (inconclusive) and the AC50 (Cytochrome P450 2C9) was “inconclusive”.

For CC(OC(=O)c1ccc(Cl)c([N+](=O)[O-])c1)C(=O)N1CCN(Cc2ccccc2)CC1 (centres undefined), the IC50 (Fatty acid synthase [4]) was 6.15 µM (active) and the IC50 (Fatty acid synthase [5]) was 3.36 µM (active).

For Cc1cc(=O)c2ccccc2[nH]1, the AC50 (Cytochrome P450 1A2) was 25.1 µM (inconclusive) and the AC50 (Cytochrome P450 2C9) was “inconclusive”.
